US11331369B2, “Endoparasitic depsipeptides” (Zoetis Services LLC, priority 2017, dated 2022)

What was measured:
[1] = test system: third stage larvae of Haemonchus contortus; assay: Haemonchus contortus L3 (HcL3) Assay; assay type: cell-based; conditions: 96 h, read-out: HcL3 Minimum Effective Dose (MED)
[2] = test system: 4th stage larvae (L4) of Dirofilaria immitis; assay: Dirofilaria immitis, L4 Stage (DiL4) In Vitro Assay; assay type: cell-based; conditions: Dirofilaria immitis, 72 h, read-out: DiL4 Minimum Effective Dose (MED), approximately 72 hours incubation; L4 larvae assessed for survival or paralysis

SMILES | minimal effective concentration [1] [µM] | minimal effective concentration [2] [µM]
Cc1nn(Cc2ccc(C[C@H]3OC(=O)[C@H](CC(C)C)N(C)C(=O)[C@@H](C)OC(=O)[C@H](CC(C)C)N(C)C(=O)[C@@H](Cc4ccc(Cn5nc(C)c(O)c5C)cc4)OC(=O)[C@H](CC(C)C)N(C)C(=O)[C@@H](C)OC(=O)[C@H](CC(C)C)N(C)C3=O)cc2)c(C)c1O [Example 1b-16, (3S,6R,9S,12R,15S,18R,21S,24R)-6,18-bis({4-[(4-hydroxy-3,5-dimethyl-1H-pyrazol-1-yl)methyl]phenyl}methyl)-4,10,12,16,22,24-hexamethyl-3,9,15,21-tetrakis(2-methylpropyl)-1,7,13,19-tetraoxa-4,10,16,22-tetraazacyclotetracosan-2,5,8,11,14,17,20,23-octaone] | 1 to 10 | 0.0001 to 0.001
CC(C)C[C@H]1C(=O)O[C@H](Cc2ccc(Cn3cc(F)cn3)cc2)C(=O)N(C)[C@@H](CC(C)C)C(=O)O[C@H](C)C(=O)N(C)[C@@H](CC(C)C)C(=O)O[C@H](Cc2ccc(Cn3cc(F)cn3)cc2)C(=O)N(C)[C@@H](CC(C)C)C(=O)O[C@H](C)C(=O)N1C [Example 1b-17, (3S,6R,9S,12R,15S,18R,21S,24R)-6,18-bis(4-((4-fluoro-1H-pyrazol-1-yl)methyl)benzyl)-3,9,15,21-tetraisobutyl-4,10,12,16,22,24-hexamethyl-1,7,13,19-tetraoxa-4,10,16,22-tetraazacyclotetracosan-2,5,8,11,14,17,20,23-octaone] | 1 to 10 | 0.0001 to 0.001
C#Cc1cnn(Cc2ccc(C[C@H]3OC(=O)[C@H](CC(C)C)N(C)C(=O)[C@@H](C)OC(=O)[C@H](CC(C)C)N(C)C(=O)[C@@H](Cc4ccc(Cn5cc(C#C)cn5)cc4)OC(=O)[C@H](CC(C)C)N(C)C(=O)[C@@H](C)OC(=O)[C@H](CC(C)C)N(C)C3=O)cc2)c1 [Example 1b-32, (3S,6R,9S,12R,15S,18R,21S,24R)-6,18-bis({4-[(4-ethynyl-1H-pyrazol-1 yl)methyl]phenyl}methyl)-4,10,12,16,22,24-hexamethyl-3,9,15,21-tetrakis(2-methylpropyl)-1,7,13,19-tetraoxa-4,10,16,22-tetraazacyclotetracosan-2,5,8,11,14,17,20,23-octaone] | 10 to 100 | 0.0001 to 0.001
CC(C)C[C@H]1C(=O)O[C@H](Cc2ccc(Cn3nc(C#N)cc3C#N)cc2)C(=O)N(C)[C@@H](CC(C)C)C(=O)O[C@H](C)C(=O)N(C)[C@@H](CC(C)C)C(=O)O[C@H](Cc2ccc(Cn3nc(C#N)cc3C#N)cc2)C(=O)N(C)[C@@H](CC(C)C)C(=O)O[C@H](C)C(=O)N1C [Example 1b-66, 1,1′-(((((2R,5S,8R,11S,14R,17S,20R,23S)-5,11,17,23-tetraisobutyl-4,8,10,16,20,22-hexamethyl-3,6,9,12,15,18,21,24-octaoxo-1,7,13,19-tetraoxa-4,10,16,22-tetraazacyclotetracosane-2,14-diyl)bis(methylene))bis(4,1-phenylene))bis(methylene))bis(1H-pyrazole-3,5-dicarbonitrile)] | ≤ 1 | ≤ 0.0001
CC(C)C[C@H]1C(=O)O[C@H](Cc2ccc(Cn3cc(-c4ccncn4)cn3)cc2)C(=O)N(C)[C@@H](CC(C)C)C(=O)O[C@H](C)C(=O)N(C)[C@@H](CC(C)C)C(=O)O[C@H](Cc2ccc(Cn3cc(-c4ccncn4)cn3)cc2)C(=O)N(C)[C@@H](CC(C)C)C(=O)O[C@H](C)C(=O)N1C [Example 1b-86, (3S,6R,9S,12R,15S,18R,21S,24R)-3,9,15,21-tetraisobutyl-4,6,10,16,18,22-hexamethyl-12,24-bis(4-((4-(pyrimidin-4-yl)-1H-pyrazol-1-yl)methyl)benzyl)-1,7,13,19-tetraoxa-4,10,16,22-tetraazacyclotetracosan-2,5,8,11,14,17,20,23-octaone] | 10 to 100 | 0.0001 to 0.001
CC(C)C[C@H]1C(=O)O[C@H](Cc2ccc(Cn3ccc(Cl)n3)cc2)C(=O)N(C)[C@@H](CC(C)C)C(=O)O[C@H](C)C(=O)N(C)[C@@H](CC(C)C)C(=O)O[C@H](Cc2ccc(Cn3ccc(Cl)n3)cc2)C(=O)N(C)[C@@H](CC(C)C)C(=O)O[C@H](C)C(=O)N1C [Example 1b-96, (3S,6R,9S,12R,15S,18R,21S,24R)-6,18-bis(4-((3-chloro-1H-pyrazol-1-yl)methyl)benzyl)-3,9,15,21-tetraisobutyl-4,10,12,16,22,24-hexamethyl-1,7,13,19-tetraoxa-4,10,16,22-tetraazacyclotetracosan-2,5,8,11,14,17,20,23-octaone] | ≤ 1 | ≤ 0.0001
CCOc1ccn(Cc2ccc(C[C@H]3OC(=O)[C@H](CC(C)C)N(C)C(=O)[C@@H](C)OC(=O)[C@H](CC(C)C)N(C)C(=O)[C@@H](Cc4ccc(Cn5ccc(OCC)n5)cc4)OC(=O)[C@H](CC(C)C)N(C)C(=O)[C@@H](C)OC(=O)[C@H](CC(C)C)N(C)C3=O)cc2)n1 [Example 1b-104, (3S,6R,9S,12R,15S,18R,21S,24R)-6,18-bis(4-((3-ethoxy-1H-pyrazol-1-yl)methyl)benzyl)-3,9,15,21-tetraisobutyl-4,10,12,16,22,24-hexamethyl-1,7,13,19-tetraoxa-4,10,16,22-tetraazacyclotetracosan-2,5,8,11,14,17,20,23-octaone] | ≤ 1 | 0.0001 to 0.001
COc1ccn(Cc2ccc(C[C@H]3OC(=O)[C@H](CC(C)C)N(C)C(=O)[C@@H](C)OC(=O)[C@H](CC(C)C)N(C)C(=O)[C@@H](Cc4ccc(Cn5ccc(OC)n5)cc4)OC(=O)[C@H](CC(C)C)N(C)C(=O)[C@@H](C)OC(=O)[C@H](CC(C)C)N(C)C3=O)cc2)n1 [Example 1b-115, (3S,6R,9S,12R,15S,18R,21S,24R)-3,9,15,21-tetraisobutyl-6,18-bis(4-((3-methoxy-1H-pyrazol-1-yl)methyl)benzyl)-4,10,12,16,22,24-hexamethyl-1,7,13,19-tetraoxa-4,10,16,22-tetraazacyclotetracosan-2,5,8,11,14,17,20,23-octaone] | ≤ 1 | ≤ 0.0001
Cc1ccnn1Cc1ccc(C[C@H]2OC(=O)[C@H](CC(C)C)N(C)C(=O)[C@@H](C)OC(=O)[C@H](CC(C)C)N(C)C(=O)[C@@H](Cc3ccc(Cn4nccc4C)cc3)OC(=O)[C@H](CC(C)C)N(C)C(=O)[C@@H](C)OC(=O)[C@H](CC(C)C)N(C)C2=O)cc1 [Example 1b-160, (3S,6R,9S,12R,15S,18R,21S,24R)-3,9,15,21-tetraisobutyl-4,6,10,16,18,22-hexamethyl-12,24-bis(4-((5-methyl-1H-pyrazol-1-yl)methyl)benzyl)-1,7,13,19-tetraoxa-4,10,16,22-tetraazacyclotetracosan-2,5,8,11,14,17,20,23-octaone] | ≤ 1 | 0.0001 to 0.001
COCc1ccnn1Cc1ccc(C[C@H]2OC(=O)[C@H](CC(C)C)N(C)C(=O)[C@@H](C)OC(=O)[C@H](CC(C)C)N(C)C(=O)[C@@H](Cc3ccc(Cn4nccc4COC)cc3)OC(=O)[C@H](CC(C)C)N(C)C(=O)[C@@H](C)OC(=O)[C@H](CC(C)C)N(C)C2=O)cc1 [Example 1b-166, (3S,6R,9S,12R,15S,18R,21S,24R)-3,9,15,21-tetraisobutyl-6,18-bis(4-((5-(methoxymethyl)-1H-pyrazol-1-yl)methyl)benzyl)-4,10,12,16,22,24-hexamethyl-1,7,13,19-tetraoxa-4,10,16,22-tetraazacyclotetracosan-2,5,8,11,14,17,20,23-octaone] | 1 to 10 | ≤ 0.0001
CCOc1cnn(C(C)(C)c2ccc(C[C@H]3OC(=O)[C@H](CC(C)C)N(C)C(=O)[C@@H](C)OC(=O)[C@H](CC(C)C)N(C)C(=O)[C@@H](Cc4ccc(C(C)(C)n5cc(OCC)cn5)cc4)OC(=O)[C@H](CC(C)C)N(C)C(=O)[C@@H](C)OC(=O)[C@H](CC(C)C)N(C)C3=O)cc2)c1 [Example 1b-171, (3S,6R,9S,12R,15S,18R,21S,24R)-6,18-bis(4-(2-(4-ethoxy-1H-pyrazol-1-yl)propan-2-yl)benzyl)-3,9,15,21-tetraisobutyl-4,10,12,16,22,24-hexamethyl-1,7,13,19-tetraoxa-4,10,16,22-tetraazacyclotetracosan-2,5,8,11,14,17,20,23-octaone] | ≤ 1 | ≤ 0.0001
CC(C)C[C@H]1C(=O)O[C@H](Cc2ccc(Cn3nccc3-c3ccccn3)cc2)C(=O)N(C)[C@@H](CC(C)C)C(=O)O[C@H](C)C(=O)N(C)[C@@H](CC(C)C)C(=O)O[C@H](Cc2ccc(Cn3nccc3-c3ccccn3)cc2)C(=O)N(C)[C@@H](CC(C)C)C(=O)O[C@H](C)C(=O)N1C [Example 1b-173, (3S,6R,9S,12R,15S,18R,21S,24R)-3,9,15,21-tetraisobutyl-4,6,10,16,18,22-hexamethyl-12,24-bis(4-((5-(pyridin-2-yl)-1H-pyrazol-1-yl)methyl)benzyl)-1,7,13,19-tetraoxa-4,10,16,22-tetraazacyclotetracosan-2,5,8,11,14,17,20,23-octaone] | ≤ 1 | 0.0001 to 0.001
CCOCc1ccnn1Cc1ccc(C[C@H]2OC(=O)[C@H](CC(C)C)N(C)C(=O)[C@@H](C)OC(=O)[C@H](CC(C)C)N(C)C(=O)[C@@H](Cc3ccc(Cn4nccc4COCC)cc3)OC(=O)[C@H](CC(C)C)N(C)C(=O)[C@@H](C)OC(=O)[C@H](CC(C)C)N(C)C2=O)cc1 [Example 1b-176, (3S,6R,9S,12R,15S,18R,21S,24R)-6,18-bis(4-((5-(ethoxymethyl)-1H-pyrazol-1-yl)methyl)benzyl)-3,9,15,21-tetraisobutyl-4,10,12,16,22,24-hexamethyl-1,7,13,19-tetraoxa-4,10,16,22-tetraazacyclotetracosan-2,5,8,11,14,17,20,23-octaone] | ≤ 1 | ≤ 0.0001
